Measured values published in US11154563B2, “Immunoproteasome inhibitors” (Principia Biopharma Inc., priority 2017, dated 2021).

Assays:
[1] = system: multiple myeloma cell lines and primary patient tumor cells; settings: including cells resistant to conventional and novel prior therapies; cited from earlier work
PBMC/LMP7 = biological target: T1, PBMC/LMP7 (Homo sapiens, UniProt P28062); assay: Inhibition of proteasome activity in cells (Proteasome-Glo), PBMC; format: cell-based; settings: primary human PBMC, 2 h incubation, Suc-LLVY-aminoluciferin substrate
T1 construct: endogenous in cells; host or cells: primary human PBMC
Description: The cell-based effects of a compound described herein on the immunoproteasome are determined by measuring inhibition of proteasome activity in cells using the Proteasome-Glo™ Cell-Based Reagent (Promega, Madison Wis.). The Proteasome-Glo™ assay contains a specific luminogenic proteasome substrate in a buffer optimized for cell permeabilization, proteasome activity, and luciferase activity. For the chymotrypsin-like activity (LMP7 and […]), the peptide substrate is Suc-LLVY-aminoluciferin (Succinyl-leucine-leucine-valine-tyrosine-aminoluciferin). Cleavage of the substrate by proteasome results in luminescent signal which is proportional to the proteasome activity. The cell line THP-1 (a monocytic leukemia cell line enriched in immunoproteasome), the cell line HT-29 (a colorectal adenocarcinoma cell line enriched in constitutive proteasome), and primary human peripheral blood mononuclear cells (PBMC) are used to assess proteasome activity. Cells are seeded in a 96-well plate at 10,000 cells per well in RPMI 1640 high glucose medium with 10% fetal bovine serum (FBS). Compound dilutions are added to cells starting at a concentration of 5 uM and decreasing in tripling dilutions. The final DMSO concentration is 1%. The concentration range is adjusted as needed for compounds of different potencies. The cells treated with compounds are incubated for 2 h at 37° C. in 5% CO2. At the end of the 2 h incubation period, cells are transferred to white 384 well assay plates. 20 uL of Proteasome-Glo™ Reagent is added to each well and incubated for 10 min at rt. The plate is read in the Analyst HT instrument (Molecular Devices, Sunnyvale, Calif.) using luminescence mode. The percent inhibition of activity is plotted as a function of log compound concentration. The IC50 is then calculated for each compound using Prism software from GraphPad Software Inc. (San Diego, Calif.).

[2] = biological target: immunoproteasome LMP7/B5i subunit (Homo sapiens, UniProt P20618+P28062); assay: Caliper-based proteasome enzymatic activity assay, LMP7; format: biochemical; settings: human recombinant immunoproteasome 0.3 nM, FAM-peptide substrate 1 μM, 3 h at rt
Summary of the method: (§1)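 Recombinant human immunoproteasome or constitutive proteasome (0.3 nM) with 1 μM FAM-peptide in 20 mM Hepes pH 7.4, 0.015% SDS, 0.01% BSA; LMP7/β5c ran 3 h at rt and were stopped with 5 uM carfilzomib, LMP2 ran 2 h and was stopped with 6.7 uM ixazomib. Cleaved product quantified by microfluidic separation; IC50 from percent inhibition.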

[3] = biological target: constitutive proteasome β5c unit (Homo sapiens, UniProt P20618+P28074); assay: Caliper-based proteasome enzymatic activity assay, β5c; format: biochemical; settings: human recombinant constitutive proteasome 0.3 nM, FAM-peptide substrate 1 μM, 3 h at rt; read-out: β5c subunit IC50
Summary of the method: as §1

[4] = biological target: immunoproteasome LPM2/β1i subunit (Homo sapiens, UniProt P28065+P40306); assay: Caliper-based proteasome enzymatic activity assay, LMP2; format: biochemical; settings: human recombinant immunoproteasome 0.3 nM, FAM-peptide substrate 1 μM, 2 h at rt
Description: A Caliper-based proteasome assay (Caliper Life Sciences, Hopkinton, Mass.) was used to measure inhibition of the immunoproteasome LMP7/B5i subunit, the immunoproteasome LPM2/β1i subunit, and the constitutive proteasome β5c unit for a compound of Formula (I). For LMP7 and β5c, serial dilutions of test compounds were incubated with either human recombinant immunoprotcasome or constitutive proteasome (0.3 nM enzyme) and a carboxyfluorescein (FAM)-labeled peptide substrate FAM-TYETFKSIMKKSPF-NH2 (1 μM) at it for 3 h. The reaction was then terminated with a buffer containing the known proteasome inhibitor carfilzomib at a concentration of 5 uM. For LMP2, serial dilutions of test compounds were incubated with human recombinant immunoproteasome proteasome (0.3 nM enzyme) and a carboxyfluorescein (FAM)-labeled peptide substrate FAM-[…]-NH2 (1 μM) at rt for 2 h. The reaction was then terminated with a buffer containing the known proteasome inhibitor ixazomib at a concentration of 6.7 uM. The reaction buffer was 20 mM Hepes pH 7.4, 0.01% bovine serum albumin, 0.015% SDS, 0.5 mM EDTA, 1%0/DMSO. The peptide cleavage reaction product was quantified on a Caliper LabChip 3000. Percent inhibition was calculated for each compound dilution and the concentration that produced 50% inhibition was calculated. This value is presented as the IC50.

Th1/17 differentiation = settings: human and mouse; cited from earlier work
[5] = system: murine DSS-induced colitis model; settings: cited from earlier work
MRL/lpr lupus model = settings: cited from earlier work
[6] = system: murine collagen-induced arthritis; settings: including reduction of inflammation and bone erosion; cited from earlier work
[7] = system: Hashimoto's thyroiditis model; settings: autoantibody-driven model; cited from earlier work
prostate PC-3 cell line = settings: in vitro; cited from earlier work
tumor growth = settings: cited from earlier work

| IC50 (PBMC/LMP7) | IC50 [2] | IC50 [3] | IC50 [4] | Structure (SMILES) | other results |
| --- | --- | --- | --- | --- | --- |
|  |  |  |  | CC1=C(C(=O)N[C@H](C)C(=O)N[C@@H](Cc2c[nH]c3ccccc23)C(=O)N[C@@H](Cc2ccccc2)C(=O)[C@@]2(C)CO2)Cc2ccccc21 [PR-924] | growth of multiple myeloma cells [1]: inhibit growth |
| 7.1 nM | 1.8 nM | 3410 nM | > 5000 nM | CC(C)(C)C=C(C#N)C(=O)N1CCC[C@@H]1COC(=O)N[C@@H](Cc1ccccc1)B(O)O [Example 10, ((R)-1-(((((R)-1-(2-cyano-4,4-dimethylpent-2-enoyl)pyrrolidin-2-yl)methoxy)carbonyl)amino)-2-phenylethyl)boronic acid] |  |
|  |  |  |  | COc1ccc(C[C@H](NC(=O)[C@H](C)NC(=O)CN2CCOCC2)C(=O)N[C@@H](Cc2ccccc2)C(=O)[C@@]2(C)CO2)cc1 [PR-957] | block of Th1/17 differentiation (Th1/17 differentiation): potently block; inflammation and tissue destruction [5]: reduced inflammation and tissue destruction; disease progression (MRL/lpr lupus model): prevented disease progression; plasma cell numbers and anti-dsDNA IgG levels (MRL/lpr lupus model): reduced plasma cell numbers and anti-dsDNA IgG levels; disease activity in collagen-induced arthritis [6]: significantly inhibit disease activity; efficacy in Hashimoto's thyroiditis model [7]: efficacious |
| 130 nM | 60 nM | > 5000 nM | 3430 nM | CC(C)C=C(C#N)C(=O)N1CCCC1CCC(=O)N[C@@H](Cc1ccccc1)B(O)O (single isomer, unassigned) [Example 3] |  |
| 190 nM | 79 nM | 1460 nM |  | CC(C)C=C(C#N)C(=O)N1CCC[C@@H]1COCCC(=O)N[C@@H](Cc1ccccc1)B(O)O [Example 1, ((R)-1-(3-(((R)-1-(2-cyano-4-methylpent-2-enoyl)pyrrolidin-2-yl)methoxy)propanamido)-2-phenylethyl)boronic acid] |  |
|  |  |  |  | CCCCCCC(=O)N[C@@H](C)C(=O)N[C@@H](CC(C)C)C(=O)[C@@]1(CO[Si](C)(C)C(C)(C)C)CO1 [UK-101] | apoptosis of PC-3 cells (prostate PC-3 cell line): induced apoptosis; tumor growth in vivo (tumor growth): significantly suppressed tumor growth |
| 3.3 nM | 5.5 nM | 4190 nM | > 5000 nM | CC(C)(C)C=C(C#N)C(=O)N1CCCC[C@@H]1COC(=O)N[C@@H](Cc1ccccc1)B(O)O [Example 15, ((R)-1-(((((R)-1-(2-cyano-4,4-dimethylpent-2-enoyl)piperidin-2-yl)methoxy)carbonyl)amino)-2-phenylethyl)boronic acid] |  |
| 9.4 nM | 2.6 nM | > 5000 nM | > 5000 nM | CC(C)C=C(C#N)C(=O)N1CCC[C@@H]1COC(=O)N[C@@H](Cc1ccccc1)B(O)O [Example 7, ((R)-1-(((((R)-1-(2-cyano-4-methylpent-2-enoyl)pyrrolidin-2-yl)methoxy)carbonyl)amino)-2-phenylethyl)boronic acid] |  |
| 420 nM | 55 nM | > 5000 nM | > 5000 nM | CC(C)C=C(C#N)C(=O)N1CCCC[C@@H]1COC(=O)N[C@@H](Cc1ccccc1)B(O)O [Example 2, ((R)-1-(((((R)-1-(2-cyano-4-methylpent-2-enoyl)piperidin-2-yl)methoxy)carbonyl)amino)-2-phenylethyl)boronic acid] |  |
| 23 nM | 7.6 nM | 1040 nM | 448 nM | CC(C)C=C(C#N)C(=O)N1CCCCC1CCC(=O)N[C@@H](Cc1ccccc1)B(O)O (single isomer, unassigned) [Example 5] |  |
| 39 nM | 4 nM | 637 nM | 2440 nM | CC(C)C=C(C#N)C(=O)N1CCCC1CCC(=O)N[C@@H](Cc1ccccc1)B(O)O (single isomer, unassigned) [Example 4] |  |
| 140 nM | 57 nM | > 5000 nM | 964 nM | CC(C)C=C(C#N)C(=O)N1CCCCC1CCC(=O)N[C@@H](Cc1ccccc1)B(O)O (single isomer, unassigned) [Example 6] |  |
